Data: PubChem BioAssay (NCI)
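Test compounds were applied to cells in 96-well plates for 48 hours at 5 doses. Abbreviation: GI50, concentration required for 50% inhibition of growth. TGI: total growth inhibition.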

Assays:
Test in all cases: NCI tumour cell line growth inhibition, 48 h
[1] = test system: LOX IMVI melanoma
[2] = test system: MDA-MB-231 breast
[3] = test system: PC-3 prostate
[4] = test system: T-47D breast
[5] = test system: UACC-62 melanoma
[6] = test system: DMS 273 small cell lung
[7] = test system: KM20L2 colon
[8] = test system: LXFL 529 NSCLC
[9] = test system: SNB-78 CNS

## O=c1c2ccccc2c(=O)c2c1[nH]c1c(-c3ccccc3)c(-c3ccccc3)c(=O)c12
[1]
  GI50: 2.55 µM
  TGI: 6.2 µM
[2]
  GI50: 4.97 µM
  TGI: 43 µM
[3]
  GI50: 2.67 µM
  TGI: 11.1 µM
[4]
  GI50: 1.8 µM
  TGI: 7.76 µM
[5]
  GI50: 1.72 µM
  TGI: 3.38 µM

## Nc1nc(F)nc2c1ncn2C1OC(CO)C(O)C1O (centres undefined)
[1]
  GI50: 19.9 µM
  TGI: > 100 µM
[2]
  TGI: > 100 µM
[3]
  GI50: 41.6 µM
  TGI: > 100 µM
[4]
  GI50: > 56 µM
  TGI: > 100 µM
[5]
  GI50: 89.8 µM
  TGI: > 100 µM

## COc1ccc(C(=O)COc2ccc(/C=C3\COc4ccc(OC)cc4C3=O)cc2)cc1
[1]
  GI50: 6.59 µM
  TGI: 24.2 µM
[2]
  GI50: 30 µM
  TGI: 92.5 µM
[3]
  GI50: 12.8 µM
  TGI: 47.1 µM
[4]
  GI50: 19.1 µM
  TGI: 96.6 µM
[5]
  GI50: 48.9 µM
  TGI: > 100 µM

## ClCC[N+]12CC[N+](CCCl)(CC1)C2
[1]
  TGI: > 100 µM
[2]
  TGI: > 100 µM
[3]
  TGI: > 100 µM
[4]
  TGI: > 100 µM
[5]
  TGI: > 100 µM

## O=C1CC2c3ccccc3CCC2c2ccccc21 (centres undefined)
[1]
  TGI: 34.3 µM
[2]
  TGI: 80 µM
[3]
  TGI: 90.6 µM
[4]
  TGI: > 100 µM
[5]
  TGI: 69.6 µM

## ClCc1cccc(Cn2cnc3nc(Cl)nc(Cl)c32)c1
[2]
  GI50: 0.234 µM
  TGI: 0.694 µM
[3]
  GI50: 0.644 µM
  TGI: 2.06 µM
[5]
  GI50: 1.02 µM
  TGI: 2.22 µM

## CCN(CC)c1ccc(N=Nc2ccc(-c3nc4ccc[n+](C)c4s3)cc2)cc1
[6]
  TGI: 13.5 µM
[7]
  TGI: 19.9 µM
[1]
  TGI: 15.8 µM
[8]
  TGI: 17.9 µM
[9]
  TGI: 31.6 µM
[5]
  TGI: 26.6 µM

## COc1cc(/C=C/c2cc(/C=C/c3ccc(O)c(OC)c3)n(C(=O)Nc3ccc(C)cc3C)n2)ccc1O
[2]
  GI50: 0.613 µM
  TGI: 6.01 µM
[3]
  GI50: 0.379 µM
  TGI: 5.01 µM
[5]
  GI50: 0.412 µM
  TGI: 1.65 µM

## Cc1ncc(CCCN(C)C)cc1Nc1ncc2c(n1)-c1ccc(C(F)(F)F)cc1NC(=S)C2
[1]
  GI50: 0.0276 µM
  TGI: 15.1 µM
[2]
  GI50: < 0.0153 µM
  TGI: 0.302 µM
[3]
  GI50: < 0.0207 µM
  TGI: 24.5 µM
[4]
  GI50: 0.814 µM
  TGI: 33.8 µM
[5]
  GI50: 0.0313 µM
  TGI: 17.9 µM

## CCNC(=O)Nc1cccc(NC(=O)NCC)n1
[2]
  TGI: > 100 µM
[3]
  TGI: > 100 µM
[4]
  TGI: > 100 µM
[5]
  TGI: > 100 µM

## CCOc1cc(C(C)(C)C)ccc1C1=N[C@@](C)(c2ccc(Cl)cc2)[C@@](C)(c2ccc(Cl)cc2)N1C(=O)N1CCN(CCCS(C)(=O)=O)CC1
[1]
  GI50: 0.438 µM
  TGI: 11 µM
[2]
  GI50: 3.41 µM
  TGI: 12.9 µM
[4]
  GI50: 9.21 µM
  TGI: 61.4 µM
[5]
  GI50: 0.708 µM
  TGI: 6.41 µM

## Cc1[nH]c2ccccc2c(=O)c1CC=C(Cl)Cl
[1]
  GI50: > 100 µM
  TGI: > 100 µM
[2]
  GI50: 31 µM
  TGI: > 100 µM
[3]
  GI50: 99.9 µM
  TGI: > 100 µM
[4]
  GI50: 29 µM
  TGI: > 100 µM
[5]
  GI50: 34.5 µM
  TGI: > 100 µM

## O=C(O)C1C(Br)(c2ccccc2)C1(Br)c1ccccc1 (centres undefined)
[1]
  TGI: > 100 µM
[2]
  TGI: > 100 µM
[3]
  TGI: > 100 µM
[4]
  TGI: > 100 µM
[5]
  TGI: 64.3 µM

## Clc1ccc(C=Nc2ccc3c(c2)Cc2ccccc2-3)c(Cl)c1
[1]
  TGI: > 100 µM
[2]
  TGI: > 100 µM
[3]
  TGI: > 100 µM
[4]
  TGI: > 100 µM
[5]
  TGI: > 100 µM
